{
  "source": "paper PMC11047392",
  "about": "“A Physiological Approach to Explore How Thioredoxin–Glutathione Reductase (TGR) and Peroxiredoxin (Prx) Eliminate H2O2 in Cysticerci of Taenia” (Antioxidants, 2024)",
  "target": "T1, TsPrx1 (Taenia solium, UniProt Q2TP88)",
  "T1 construct": "recombinant, pET-23a(+) NdeI/XhoI, E. coli BL21 Codon Plus, His tag (printed as amino terminal), 195 residues, ~22 kDa",
  "T1 sequence (Q2TP88 entry or part of it)": "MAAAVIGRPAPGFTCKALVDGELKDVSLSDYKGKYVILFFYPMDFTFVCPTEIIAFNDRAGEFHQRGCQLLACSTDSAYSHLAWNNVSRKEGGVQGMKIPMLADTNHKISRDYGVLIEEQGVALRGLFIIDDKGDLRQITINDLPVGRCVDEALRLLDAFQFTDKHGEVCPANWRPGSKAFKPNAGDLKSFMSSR",
  "experiment": "NADPH oxidation at […] nm, coupled assay with TsTrx and TcTGR",
  "format": "biochemical",
  "details": "150 μM NADPH, 60 μM TsTrx, 11.2 nM TcTGR, 1.25 μM TsPrx1, pH 7.8, 25 °C",
  "data": [
    {"smiles": "CC(C)(C)OO", "note": "[t-butyl hydroperoxide]", "values": [
      {"measurement": "Km", "value": 18.1, "unit": "µM"}
    ]}
  ]
}
